In US11992557B2, “Collagenase loaded liposomes for enhancing drug delivery” (TECHNION RESEARCH & DEVELOPMENT FOUNDATION LIMITED, priority 2018, dated 2024):

Legend:
PDAC collagen = assay: Collagen analysis after ex-vivo collagenase treatment of pancreatic tumor slices; set-up: species or system mice; conditions: PDAC treated with 0.05-0.2 mg/ml collagenase ex-vivo, Masson's trichrome
Method: Collagen analysis after the collagenase treatment. Pancreatic tumors were harvested from tumor bearing mice, six weeks after the initiation of the tumor model. Each tumor was sliced horizontally to 1 cm thick slices. All the extracted slices were mixed and randomly chosen for different treatments groups. Treatments included incubation in DMEM medium (Sigma-Aldrich) with collagenase type-I (Sigma-Aldrich) at increasing concentrations: 0.05, 0.1 or 0.2 mg/ml for either 8 or 24 hours. Following the enzymatic treatment, the tumor slices were sectioned, fixated in 10% formalin (Sigma-Aldrich) and stained with Masson's trichrome. Computerized morphometry was utilized to quantitate the fraction of the fibrotic area out of the total area of the tumor in each sample. Computerized morphometry of the collagen was used to determine fibrosis fraction within each sample. Masson's trichrome staining was performed to identify the pancreatic fibrosis. Then, stained slides were entirely scanned at magnification of X20 using the Panoramic MIDI automatic digital slide scanner (3DHistech, Budapest, Hungary). The whole slide was analyzed in Image Pro Premier 9.2 software (Media Cybernetics, MD, USA). Fibrosis area was calculated according to the blue staining within the tissue, and the tissue area was calculated by choosing the whole tissue with the machine ‘color picker tool’.

[1] = tested on: fluorescein conjugated gelatin substrate
Method: Collagenase activity assay. Collagenase type-I activity was determined using gelatin with fluorescein conjugate as a substrate (ThermoFisher). Collagenase (100 μl) was mixed with 80 μl of reaction buffer (0.05M Tris-HCl, 0.15M NaCl, 5 mM CaCl2, 0.2 mM sodium azide at pH 7.6) and 20 μl of 0.125 mg/ml gelatin diluted in PBS. The fluorescent intensity was measured every 15 seconds over a period of 3 minutes at 485 nm and 530 nm (excitation/emission) using an Infinite 200PRO. Collagenase activity was measured at 37° C., where plasma or PBS served as control.
To test the collagenase activity, liposomal collagenase after dialysis or free collagenase in phosphate buffered saline at a concentration of 5 ug/ml, were incubated at 37° C. Every hour, a collagenase sample was assessed for its capacity to cleave a fluorescein conjugated gelatin substrate (Thermo Fisher). Activity of the released collagenase was determined in accordance to the change in fluorescence over 3 minutes, relative to the fluorescence at t=0.
In order to quantify the protective nature of liposome encapsulation versus free collagenase, both free enzyme and encapsulated enzyme were incubated in PBS or serum and protein activity was measured by Enzcheck Assay at 0, 1, 6 and 24 hours.

Collagen type-I bundles = assay: Stress/strength profile of collagen fibers exposed to proteolytic enzymes; type: biochemical, Wistar rats
Method: Stress/strength profile of collagen fibers exposed to collagenase: Collagen type-I bundles, sourced from the tails of Wistar rats, were suspended using a LLOYD LF-Plus Digital Material Tester force machine. The bundles were suspended inside a bath loaded with a buffer that simulates the composition of the oral fluid: an isotonic solution, pH 6.7 at 37° C. complemented with electrolytes including sodium, potassium, calcium, magnesium, bicarbonate, and phosphates. The bundles, 0.8-1.2 mm in diameter, were cut into two equal 4-cm sections, acting as an internal control. Collagenase type-I from Clostridium histolyticum (Sigma-Aldrich) was added at different concentrations and the stress/strength profile of the collagen fibers was recorded as a function of the collagenase treatment. The Ultimate Tensile Strength (UTS) of the collagen bundle was determined for each collagenase concentration.
Collagen regeneration SEM. Collagen bundles were mounted on carbon tape and imaged using a Zeiss UltraPlus high-resolution scanning electron microscope (HR-SEM) equipped with an Everhart-Thornley secondary electron detector. Each bundle was then cut in half. The untreated half acted as an internal control for each treated bundle. All data points are the mean of 14-20 experimental points. Collagen fibers were exposed to 0.05 mg/ml collagenase for 8 hours. Ethylenediaminetetraacetic acid (EDTA; ST. Louis, USA), 3 mM along with two drops of NH4Cl 1M buffer, were added for 30 minutes in order to retard the enzyme's activity. Subsequently, the media was removed, and the treated bundles were washed two times with new growth media to allow bundle regeneration.
Collagen fibers regain their initial mechanical strength post nano-surgery. Collagen fibers were sourced from tails of Wistar rats. Each bundle was cut in half. The untreated half acted as an internal control for each treated bundle. All presented data points are the mean of 14-20 experimental points. Collagen fibers were exposed to collagenase at concentration of 0.05 mg/ml for 8 hours in order to weaken the bundles. […] Subsequently, the media was removed, and the treated bundles were washed twice with new growth media.
Two plant-based proteolytic enzymes were also tested for their ability to relax collagen: bromelain and papain. These plant-based enzymes are not specific to collagen but have been reported to act on collagen fibers. Collagens fiber strength was tested with a force machine in the presence of 1 mg/ml collagenase, bromelain or papain. The force required to break a bundle of fibers with no treatment was set to 1, and the force required to break the treated fiber bundles was standardized to this force. […] At this same time point bromelain and papain reduced the strength of the collagen fibers such that less than 70% of the control force was needed to rupture the fibers. […] Thus, both papain and bromelain served as effective collagen relaxing enzymes, though much weaker ones than […].

[2] = tested on: human pterygium transplanted to their eyes; assay: Free collagenase I injection to the conjunctiva of mice with transplanted human pterygium; type: in vivo; conditions: 10 mg/ml by injection to the conjunctiva
Method: Pterygium is known to comprise four types of collagen: types I, II, III and IV. The stroma of pterygium and normal conjunctival tissue contains collagen types I, II, and […]. To test the ability of collagenase to break up and treat pterygium, mice that had human pterygium transplanted to their eyes were administered 10 mg/ml free collagenase I by injection to the conjunctiva.

pancreatic tumors = assay: Penetrance of gold nanoparticles after pretreatment of PDAC mice; conditions: mouse, in vivo
Method: In order to quantify the extent to which encapsulation of collagenase in liposomes improved drug penetrance over free collagenase, PDAC mice were pretreated (intravenous injection twice, 24 hours apart) with empty liposomes, free collagenase or liposome encapsulated collagenase and then 24 hours later gold nanoparticles of various sizes. Specifically, 5, 20, and 100 nm gold nanoparticles were injected and gold penetrance to various organs was monitored 24 hours later. Liposome encapsulated collagenase increased the penetrance of 100 nm (FIG. 6B) and 20 nm (FIG. 6C) gold particles into pancreatic tumors as compared to free collagenase and empty liposomes. […] The experiment was repeated, and more organs/bodily fluids were examined, but similar results were obtained (FIG. 6E-G).

fibroblasts = assay: Fibroblast adherence to collagen fibers during collagenase treatment; type: cell-based; conditions: during collagenase treatment of the fiber
Method: Fibroblast adherence to collagen fibers. The fibroblast morphological change was recorded using The LSM 710-laser scanning confocal microscope (Zeiss) over a period of 90 minutes. The fibroblasts nuclei were stained using Hoechst 33342 (Thermo Fisher Scientific, MA, USA). The Hoechast 16.23 mM stock solution was diluted 1:2000 in Dulbecco's Phosphate Buffer Saline (DPBS, Sigma-Aldrich, St. Louis, USA) and the collagen fiber buffer was removed. 3 ul of the diluted solution was added, followed by 10 minutes light protected incubation. The staining solution was removed, and the fiber was washed 3 times in PBS.

Wistar rats = conditions: rat, in vivo
Method: All rats were anesthetized in two stages. In the first stage the rats were anesthetized with isoflurane. In the second stage each rat was injected a mixture of Ketamine and Xylazine intraperitoneally. After each procedure, the rats were transferred and kept in an incubator, with constant oxygen flow, until they reached full recovery.
An ordinary orthodontic Ni—Ti closed coil spring (9 mm closed coil spring nickel and titanium alloy that has 2 eyelets with an inner radius of 0.76 mm) was used to connect the 1st molar in the upper pallet to the front upper incisors of the rat. The Ni—Ti coil spring was glued to the tooth (3M UNITEK), which generates constant force of 200 grams (1.96 N) when extended between 12-24 mm. The force applied in the oral cavity was the same on all the rats that participated in the experiment. […] The procedure of installing the Ni—Ti coil closed spring was performed using human orthodontics equipment and materials. The 1st upper molar and the upper incisors were dried and cleaned using cotton swabs to remove any debris that accumulates. […]
Collagenase-liposomes (see above Liposome Preparation), or a similar concentration of free collagenase, were applied directly to the sulcus. […] The distance between the eyelet of the Ni—Ti closed coil on the first molar and the back of the upper incisors was measured and recorded using the digital caliper. […]

PDAC tumors = assay: Effect of the collagenase treatment on pancreatic uptake of Gd-/iodine-liposomes; type: in vivo, C57BL/6 mice; conditions: PDAC mice, Gd-liposomes after pretreatment
Method: Control groups included injections of empty liposomes (n=10 mice), free collagenase (n=5 mice) or no injection at all (n=3 mice) instead of collagenase encapsulating liposomes. […] 24 hours later, the animals were euthanized, and their organs were harvested. The amount of Gadolinium in each organ was analyzed using elemental analysis (ICP-EOS, Agilent) at wavelengths of 335.048 and 342.246 nm. The organs were harvested, weighed and then burnt at 550° C. overnight. The burnt organs were dissolved in 5 ml of 1% nitric-acid and filtered using […] filters (Millipore Millex-GV, Merck, Darmstadt, Germany). The Gd concentration in the organs was measured using an ICP-EOS elemental analysis.
Micro-CT scan. Mice were imaged using an IVIS Spectrum CT Pre-clinical in-vivo imaging system (PerkinElmer, MA, USA) with the following parameters: CT was set to 50 ms, total projections were 720, voltage was set to 50 kV while the current to 1 mA the binning was determined to 2 and the X-ray filter was set to 440 A1. Hounsfield calibration was performed in air-0.004168 and water-0.5513. Two groups of tumors bearing mice (n=5 each) were divided to control and test group. The mice were weighed weekly and tumor progression was monitored by weekly IVIS scans (PerkinElmer). […] Tumor dimensions were assessed using the ROI tool in the IVIS imaging software (Living Image, PerkinElmer).

[3] = tested on: fluorescein conjugated gelatin; assay: Collagenase activity test in various conditions (temperature, ethanol, pH, extrusion pressure); type: biochemical
Method: Collagenase activity assay. Collagenase activity was assessed using fluorescein conjugated gelatin (ThermoFisher) as a substrate. The enzyme solution was added to the substrate solution together with a reaction buffer (0.5 M Tris-HCl, 1.5 M NaCl, 50 mM CaCl2, 2 mM sodium azide, pH 7.6). Fluorescence intensity for every sample was measured every 15 seconds for 3 minutes with excitation set at 485 nm and emission at 530 nm using the Infinite 200 PRO multimode reader (TECAN, Mannedorf, Switzerland). A linear incline was determined, and collagenase concentration was calculated using a calibration curve generated by collagenase samples of known concentrations.
Having established that collagenase's activity drops rapidly at 37 degrees (FIG. 7B), other parameters during liposome production that might affect the protein's integrity and function were examined.
Lastly, the activity of free collagenase at various pH was assayed.

collagenase
level of fibrotic tissue (PDAC collagen): 1.28±0.3%
half-life of collagenase once activated [1]: several hours
force needed to rupture the fibers, standardized to control force (Collagen type-I bundles; 1 mg/ml, 4 hours of treatment): almost no force
time to degrade the collagen fibers (Collagen type-I bundles; 0.5 and 1 mg/mL collagenase): less than 10 hours
initial strength profile regained by collagen fibers (Collagen type-I bundles; after the collagenase activity was retarded (16 h)): ~90%
therapeutic window: fibers relaxed but not fully degraded (Collagen type-I bundles; oral physiological conditions): 0.05 to 0.1 mg/mL
decrease of collagen fiber strength (Collagen type-I bundles; therapeutic dose of collagenase (0.05 mg/ml, 8 h)): approximately 50%
effect on the eye [2]: general breakdown of the eye, with extreme inflammation and damage seen throughout the eye
penetrance of 5 nm particles into tumors (pancreatic tumors): decreased penetrance
fibroblast detachment and viability (fibroblasts): fibroblast viability was retained
inflammation of the gingival tissue (histology) (Wistar rats): mild inflammation
pancreatic uptake by elemental analysis of Gd (PDAC tumors): 15.1 μg-Gd/g-pancreas
activity of free collagenase at various pH [3]: Basic pH was found to result in improved collagenase activity
activity of free enzyme versus temperature ([3]; 50 degrees or greater): completely abrogated protein function
activity of free enzyme in ethanol ([3]; as little as 20% ethanol): completely abrogated protein function
protein activity versus ethanol during liposome production ([3]; ethanol procedure): Inclusion of any amount of ethanol was also found to denature the protein and reduce its activity
protein activity versus extrusion force ([3]; ethanol procedure): a force above 10 bar during extrusion was found to have a negative effect on protein activity
protein activity versus temperature during liposome production ([3]; ethanol procedure): temperatures above 25 began reducing protein activity
